In patent US20210079443A1, “INDICATOR BAC[…] SELECTING AND […] EFFICACY OF THERAPEUTICS AND METHODS FOR USING SAME” (priority 2018, published 2021):

How the values were obtained:
Assay in all cases: Phage-Mediated Detection of Staphylococcus aureus
Assay type in all cases: cell-based
[1] = tested on: Staphylococcus aureus strain AR0485 (MSSA, CDC Panel)
Experimental: (§1) Samples of methicillin-resistant S. aureus (MRSA) were primed by adding 135 μl of samples containing S. aureus to rich media. The rich media included sub-inhibitory antibiotic (cefoxitin) to allow for specific enrichment and induction of MRSA. Samples were incubated in rich media for 1-2 hours. Following the priming of the samples, additional cefoxitin was added to the media and samples were incubated for an additional 2 hours. Staphylococcus aureus-specific bacteriophage NanoLuc Indicator phage was added to the samples and incubated for 2 hours. Lysis buffer and NANO-GLO® reagent were added. Following 5 minutes of incubation, measurements of bioluminescence were taken using a GLOMAX® 96 instrument. A signal/background ratio ≥750 RLU indicated positive detection of S. aureus. A signal/background ratio of <750 RLU indicated the sample was negative for S. aureus.

[2] = tested on: Staphylococcus aureus strain AR0477 (MRSA, CDC Panel)
Experimental: as §1

[3] = tested on: Staphylococcus aureus strain AR0463 (MRSA, CDC Panel)
Experimental: as §1

[4] = tested on: Staphylococcus aureus strain AR0481 (MRSA, CDC Panel)
Experimental: as §1

[5] = tested on: Staphylococcus aureus strain AR0492 (MSSA, CDC Panel)
Experimental: as §1

[6] = tested on: Staphylococcus aureus strain AR0486 (MSSA, CDC Panel)
Experimental: as §1

[7] = tested on: Staphylococcus aureus strain AR0470 (MRSA, CDC Panel)
Experimental: as §1

[8] = tested on: Staphylococcus aureus strain 12600 (MSSA, ATCC)
Experimental: as §1

[9] = tested on: Staphylococcus aureus strain AR0479 (MRSA, CDC Panel)
Experimental: as §1

[10] = tested on: Staphylococcus aureus strain AR0480 (MRSA, CDC Panel)
Experimental: as §1

[11] = tested on: Staphylococcus aureus strain AR0469 (MRSA, CDC Panel)
Experimental: as §1

[12] = tested on: Staphylococcus aureus strain AR0483 (MRSA, CDC Panel)
Experimental: as §1

[13] = tested on: Staphylococcus aureus strain AR0476 (MRSA, CDC Panel)
Experimental: as §1

Compound: CO[C@@]1(NC(=O)Cc2cccs2)C(=O)N2C(C(=O)O)=C(COC(N)=O)CS[C@@H]21 [Cefoxitin, cefoxitin]
- Cefoxitin Concentration 1 ug/mL (indicator phage luminescence signal) ([1]; detected CFU 190, cefoxitin 1 ug/mL): 13930 RLU
- Cefoxitin Concentration 2 ug/mL (indicator phage luminescence signal) ([1]; detected CFU 190, cefoxitin 2 ug/mL): 236 RLU
- Cefoxitin Concentration 4 ug/mL (indicator phage luminescence signal) ([1]; detected CFU 190, cefoxitin 4 ug/mL): 301 RLU
- Cefoxitin Concentration 1 ug/mL (indicator phage luminescence signal) ([2]; detected CFU 471, cefoxitin 1 ug/mL): 478000 RLU
- Cefoxitin Concentration 2 ug/mL (indicator phage luminescence signal) ([2]; detected CFU 471, cefoxitin 2 ug/mL): 95970 RLU
- Cefoxitin Concentration 4 ug/mL (indicator phage luminescence signal) ([2]; detected CFU 471, cefoxitin 4 ug/mL): 4068 RLU
- Cefoxitin Concentration 1.8 ug/mL (indicator phage luminescence signal) ([3]; detected CFU 28, cefoxitin 1.8 ug/mL): 1941 RLU
- Cefoxitin Concentration 1 ug/mL (indicator phage luminescence signal) ([3]; detected CFU 265, cefoxitin 1 ug/mL): 8987 RLU
- Cefoxitin Concentration 2 ug/mL (indicator phage luminescence signal) ([3]; detected CFU 265, cefoxitin 2 ug/mL): 3377 RLU
- Cefoxitin Concentration 4 ug/mL (indicator phage luminescence signal) ([3]; detected CFU 265, cefoxitin 4 ug/mL): 339 RLU
- Cefoxitin Concentration 1 ug/mL (indicator phage luminescence signal) ([4]; detected CFU 82, cefoxitin 1 ug/mL): 150100 RLU
- Cefoxitin Concentration 2 ug/mL (indicator phage luminescence signal) ([4]; detected CFU 82, cefoxitin 2 ug/mL): 109000 RLU
- Cefoxitin Concentration 4 ug/mL (indicator phage luminescence signal) ([4]; detected CFU 82, cefoxitin 4 ug/mL): 27170 RLU
- Cefoxitin Concentration 1 ug/mL (indicator phage luminescence signal) ([5]; detected CFU 178, cefoxitin 1 ug/mL): 13040 RLU
- Cefoxitin Concentration 2 ug/mL (indicator phage luminescence signal) ([5]; detected CFU 178, cefoxitin 2 ug/mL): 194 RLU
- Cefoxitin Concentration 1 ug/mL (indicator phage luminescence signal) ([6]; detected CFU 220, cefoxitin 1 ug/mL): 9217 RLU
- Cefoxitin Concentration 4 ug/mL (indicator phage luminescence signal) ([6]; detected CFU 220, cefoxitin 4 ug/mL): 252 RLU
- Cefoxitin Concentration 1 ug/mL (indicator phage luminescence signal) ([7]; detected CFU 215, cefoxitin 1 ug/mL): 3502 RLU
- Cefoxitin Concentration 2 ug/mL (indicator phage luminescence signal) ([7]; detected CFU 215, cefoxitin 2 ug/mL): 1846 RLU
- Cefoxitin Concentration 4 ug/mL (indicator phage luminescence signal) ([7]; detected CFU 215, cefoxitin 4 ug/mL): 179 RLU
- Cefoxitin Concentration 1.8 ug/mL (indicator phage luminescence signal) ([8]; detected CFU 59, cefoxitin 1.8 ug/mL): 508 RLU
- Cefoxitin Concentration 1 ug/mL (indicator phage luminescence signal) ([8]; detected CFU 406, cefoxitin 1 ug/mL): 18310 RLU
- Cefoxitin Concentration 2 ug/mL (indicator phage luminescence signal) ([8]; detected CFU 406, cefoxitin 2 ug/mL): 178 RLU
- Cefoxitin Concentration 4 ug/mL (indicator phage luminescence signal) ([8]; detected CFU 406, cefoxitin 4 ug/mL): 196 RLU
- Cefoxitin Concentration 1 ug/mL (indicator phage luminescence signal) ([9]; detected CFU 52, cefoxitin 1 ug/mL): 51560 RLU
- Cefoxitin Concentration 2 ug/mL (indicator phage luminescence signal) ([9]; detected CFU 52, cefoxitin 2 ug/mL): 34730 RLU
- Cefoxitin Concentration 4 ug/mL (indicator phage luminescence signal) ([9]; detected CFU 52, cefoxitin 4 ug/mL): 6803 RLU
- Cefoxitin Concentration 1 ug/mL (indicator phage luminescence signal) ([10]; detected CFU 356, cefoxitin 1 ug/mL): 1038000 RLU
- Cefoxitin Concentration 2 ug/mL (indicator phage luminescence signal) ([10]; detected CFU 356, cefoxitin 2 ug/mL): 430200 RLU
- Cefoxitin Concentration 4 ug/mL (indicator phage luminescence signal) ([10]; detected CFU 356, cefoxitin 4 ug/mL): 127400 RLU
- Cefoxitin Concentration 1 ug/mL (indicator phage luminescence signal) ([11]; detected CFU 523, cefoxitin 1 ug/mL): 35110 RLU
- Cefoxitin Concentration 2 ug/mL (indicator phage luminescence signal) ([11]; detected CFU 523, cefoxitin 2 ug/mL): 22030 RLU
- Cefoxitin Concentration 4 ug/mL (indicator phage luminescence signal) ([11]; detected CFU 523, cefoxitin 4 ug/mL): 9007 RLU
- Cefoxitin Concentration 1 ug/mL (indicator phage luminescence signal) ([12]; detected CFU 12, cefoxitin 1 ug/mL): 39250 RLU
- Cefoxitin Concentration 2 ug/mL (indicator phage luminescence signal) ([12]; detected CFU 12, cefoxitin 2 ug/mL): 24390 RLU
- Cefoxitin Concentration 4 ug/mL (indicator phage luminescence signal) ([12]; detected CFU 12, cefoxitin 4 ug/mL): 9081 RLU
- Cefoxitin Concentration 1 ug/mL (indicator phage luminescence signal) ([13]; detected CFU 95, cefoxitin 1 ug/mL): 245000 RLU
- Cefoxitin Concentration 2 ug/mL (indicator phage luminescence signal) ([13]; detected CFU 95, cefoxitin 2 ug/mL): 52910 RLU
- Cefoxitin Concentration 4 ug/mL (indicator phage luminescence signal) ([13]; detected CFU 95, cefoxitin 4 ug/mL): 21 RLU
